For data set [1] the following is noted: cited from earlier work.
The test system of data set [2] is Escherichia coli, ATCC #26. The data set is described as follows: MIC, serial twofold broth dilution in Mueller Hinton broth. It counts as cell-based. The conditions noted are these: Escherichia coli ATCC #26, Mueller Hinton broth. On the technique in general: Dilution methods test growth across graded concentrations, often in twofold steps.
Data set [3] relates to Staphylococcus aureus Smith. The description is as above. It counts as cell-based.

For the substance Polymyxin B [reference compound], in data set [1] (patients, recommended dosing), the renal toxicity entry is recorded as “Some renal toxicity was observed”. In addition, the “E. coli MIC” value in data set [2] is listed as 0.6 micrograms per milliliter. Further, in data set [3], the Staph MIC was over 10 µg/mL.
For the substance colistin, in data set [1] (human, in vivo), the “overall incidence of neurotoxicity” value is recorded as 7.3%.
